Experimental findings from the supplement of paper PMC10307832 are described below.

Common to all, as to assay: relative viability (nuclei count vs DMSO), 5 days (fraction); higher = more cells survive
Compound in the assay “Crenolanib + Trametinib”: CC1(COc2ccc3c(c2)ncn3-c2ccc3cccc(N4CCC(N)CC4)c3n2)COC1 [Crenolanib] + CC(=O)Nc1cccc(-n2c(=O)n(C3CC3)c(=O)c3c(Nc4ccc(I)cc4F)n(C)c(=O)c(C)c32)c1 [Trametinib] (partner 0.02 µM)
In short, it runs like this:
(§1)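 Lung cancer cell lines were seeded in 1536-well plates and dosed by pin tool the next day, with either a single drug or a fixed anchor-drug dose combined with five library-drug doses (not always all listed) spaced in √10 steps. Five days later, one step fixed the cells and stained their nuclei (final 0.05% Triton X-100, 1% formaldehyde, 1 ug/ml Hoechst), and nuclei were counted on 4× images. Relative viability is the nuclei count in treated wells divided by the count in vehicle wells, and each value is the median of duplicate plates.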

Compound in the assay “Crenolanib + Alpelisib”: CC1(COc2ccc3c(c2)ncn3-c2ccc3cccc(N4CCC(N)CC4)c3n2)COC1 [Crenolanib] + Cc1nc(NC(=O)N2CCC[C@H]2C(N)=O)sc1-c1ccnc(C(C)(C)C(F)(F)F)c1 [Alpelisib] (partner 2 µM)
A digest of the protocol: as §1

Compound in the assay “Crenolanib + Phenformin”: CC1(COc2ccc3c(c2)ncn3-c2ccc3cccc(N4CCC(N)CC4)c3n2)COC1 [Crenolanib] + N=C(N)NC(=N)NCCc1ccccc1 [Phenformin] (partner 250 µM)
A digest of the protocol:
as §1

Compound in the assay “Tivantinib + Vorinostat”: O=C1NC(=O)[C@@H](c2cn3c4c(cccc24)CCC3)[C@@H]1c1c[nH]c2ccccc12 [Tivantinib] + O=C(CCCCCCC(=O)Nc1ccccc1)NO [Vorinostat] (partner 1 µM)
A digest of the protocol: as §1

Regarding NCI-H2347, the relative viability with Crenolanib + Trametinib (first compound 0.01 µM) is 0.283; with Crenolanib + Trametinib (first compound 0.03162 µM) it was 0.286; with Crenolanib + Trametinib (first compound 0.1 µM) it was 0.282; with Crenolanib + Trametinib (first compound 0.3162 µM), 0.255; with Crenolanib + Trametinib (first compound 1 µM), 0.293; with Crenolanib + Alpelisib (first compound 0.01 µM) it was 1.1. For the same cell line, the relative viability in the assay with Crenolanib + Alpelisib (first compound 0.03162 µM) amounted to 1.04; with Crenolanib + Alpelisib (first compound 0.1 µM), 0.642; with Crenolanib + Alpelisib (first compound 0.3162 µM), 1.09; in the assay with Crenolanib + Alpelisib (first compound 1 µM), 1.14; with Crenolanib + Phenformin (first compound 0.01 µM) it was 0.381; in the assay with Crenolanib + Phenformin (first compound 0.3162 µM), 0.546. For the same cell line, the relative viability amounted to 0.469 in the assay with Crenolanib + Phenformin (first compound 1 µM); 0.622 in the assay with Tivantinib + Vorinostat (first compound 0.01 µM); 0.436 with Tivantinib + Vorinostat (first compound 0.03162 µM); 0.518 in the assay with Tivantinib + Vorinostat (first compound 0.1 µM); 0.498 with Tivantinib + Vorinostat (first compound 0.3162 µM).

Consider NCI-H2405, for which the relative viability with Crenolanib + Trametinib (first compound 0.01 µM) was 0.698; in the assay with Crenolanib + Trametinib (first compound 0.1 µM) it was 0.483; with Crenolanib + Trametinib (first compound 0.3162 µM) it was 0.621; in the assay with Crenolanib + Trametinib (first compound 1 µM), 0.57; in the assay with Crenolanib + Alpelisib (first compound 0.01 µM) it was 1; with Crenolanib + Alpelisib (first compound 0.03162 µM) it was 0.76. For the same cell line, the relative viability in the assay with Crenolanib + Alpelisib (first compound 0.1 µM) came out at 0.496; with Crenolanib + Alpelisib (first compound 0.3162 µM), 0.68; with Crenolanib + Alpelisib (first compound 1 µM), 0.691; in the assay with Crenolanib + Phenformin (first compound 0.01 µM), 0.359; with Crenolanib + Phenformin (first compound 0.03162 µM) it was 0.394; with Crenolanib + Phenformin (first compound 0.3162 µM), 0.284. Also, the relative viability in the assay with Crenolanib + Phenformin (first compound 1 µM) was 0.362; in the assay with Tivantinib + Vorinostat (first compound 0.01 µM), 1.17; with Tivantinib + Vorinostat (first compound 0.03162 µM), 1.04; with Tivantinib + Vorinostat (first compound 0.1 µM) it was 1; with Tivantinib + Vorinostat (first compound 0.3162 µM), 1.26.

In the case of NCI-H3122, the relative viability with Crenolanib + Trametinib (first compound 0.01 µM) was determined as 0.233; in the assay with Crenolanib + Trametinib (first compound 0.03162 µM), 0.21; with Crenolanib + Trametinib (first compound 0.1 µM), 0.224; in the assay with Crenolanib + Trametinib (first compound 0.3162 µM), 0.23; with Crenolanib + Trametinib (first compound 1 µM) it was 0.318; with Crenolanib + Alpelisib (first compound 0.01 µM), 0.768. In addition, the relative viability in the assay with Crenolanib + Alpelisib (first compound 0.03162 µM) worked out at 0.81; in the assay with Crenolanib + Alpelisib (first compound 0.1 µM) it was 0.827; with Crenolanib + Alpelisib (first compound 0.3162 µM), 0.78; in the assay with Crenolanib + Alpelisib (first compound 1 µM), 0.979; with Crenolanib + Phenformin (first compound 0.01 µM) it was 0.383; with Crenolanib + Phenformin (first compound 0.03162 µM), 0.344. The relative viability with Crenolanib + Phenformin (first compound 0.1 µM) came to 0.368; in the assay with Crenolanib + Phenformin (first compound 0.3162 µM) it was 0.313; with Crenolanib + Phenformin (first compound 1 µM) it was 0.318; with Tivantinib + Vorinostat (first compound 0.01 µM), 1.09; with Tivantinib + Vorinostat (first compound 0.03162 µM), 0.943; with Tivantinib + Vorinostat (first compound 0.1 µM) it was 0.947. Besides, the relative viability with Tivantinib + Vorinostat (first compound 0.3162 µM) was 1.11.

As for PC-3 [JPC-3], the relative viability in the assay with Crenolanib + Trametinib (first compound 0.01 µM) came to 0.758; in the assay with Crenolanib + Trametinib (first compound 0.1 µM), 0.632; with Crenolanib + Trametinib (first compound 0.3162 µM), 0.623; with Crenolanib + Trametinib (first compound 1 µM), 0.585; with Crenolanib + Alpelisib (first compound 0.01 µM), 1.07; with Crenolanib + Alpelisib (first compound 0.03162 µM) it was 0.982. Further, the relative viability with Crenolanib + Alpelisib (first compound 0.1 µM) was 0.981; with Crenolanib + Alpelisib (first compound 0.3162 µM), 1.02; in the assay with Crenolanib + Alpelisib (first compound 1 µM), 1.04; in the assay with Crenolanib + Phenformin (first compound 0.01 µM), 0.487; with Crenolanib + Phenformin (first compound 0.03162 µM) it was 0.494; with Crenolanib + Phenformin (first compound 0.1 µM) it was 0.46. Further, the relative viability amounted to 0.474 with Crenolanib + Phenformin (first compound 0.3162 µM); 0.458 with Crenolanib + Phenformin (first compound 1 µM); 0.791 in the assay with Tivantinib + Vorinostat (first compound 0.01 µM); 0.979 with Tivantinib + Vorinostat (first compound 0.03162 µM); 0.891 with Tivantinib + Vorinostat (first compound 0.1 µM); 0.807 with Tivantinib + Vorinostat (first compound 0.3162 µM).

Take PC-14: the relative viability amounted to 0.91 with Crenolanib + Trametinib (first compound 0.01 µM); 0.619 with Crenolanib + Trametinib (first compound 0.03162 µM); 0.679 with Crenolanib + Trametinib (first compound 0.1 µM); 0.716 with Crenolanib + Trametinib (first compound 0.3162 µM); 0.647 in the assay with Crenolanib + Trametinib (first compound 1 µM); 1.01 with Crenolanib + Alpelisib (first compound 0.01 µM). Moreover, the relative viability with Crenolanib + Alpelisib (first compound 0.03162 µM) worked out at 0.969; in the assay with Crenolanib + Alpelisib (first compound 0.1 µM), 0.858; with Crenolanib + Alpelisib (first compound 0.3162 µM), 1.04; with Crenolanib + Alpelisib (first compound 1 µM), 0.894; with Crenolanib + Phenformin (first compound 0.01 µM) it was 0.628; in the assay with Crenolanib + Phenformin (first compound 0.03162 µM), 0.46. In addition, the relative viability in the assay with Crenolanib + Phenformin (first compound 0.1 µM) came to 0.544; with Crenolanib + Phenformin (first compound 0.3162 µM), 0.473; with Crenolanib + Phenformin (first compound 1 µM), 0.314; in the assay with Tivantinib + Vorinostat (first compound 0.01 µM) it was 0.832; in the assay with Tivantinib + Vorinostat (first compound 0.03162 µM) it was 0.821; in the assay with Tivantinib + Vorinostat (first compound 0.1 µM), 0.755. For the same cell line, the relative viability in the assay with Tivantinib + Vorinostat (first compound 0.3162 µM) turned out to be 0.356.
